Measurements: article PMC9573696, “Experimental Examination of Solubility and Lipophilicity as Pharmaceutically Relevant Points of Novel Bioactive Hybrid Compounds” (Molecules, 2022)
Values after ≈ are worked out from the molar mass of the structure shown.

Experiments:
[1] = Partition in system 1-octanol/buffer pH 7.4, shake-flask method; assay type: physicochemical; settings: for logP at 2 days / logD at 2 days: pH 7.4, 1-octanol/buffer pH 7.4; for logP at 2 days: from concentrations in mole fraction
Protocol: The partition coefficients of the new hybrid compounds in the model system 1-octanol/buffer pH 7.4 as a lipophilicity surrogate were determined experimentally. […] It is the lipophilic properties that allow the hybrids to move from the water phase to the less hydrophilic octanol phase, where the solute–solvent intermolecular interactions are more favourable. According to the results shown in Table 5, the order of changes in the partition coefficients logPo/b at T = 298.15 K, depending on the substituent nature, is expressed as the inequality: Cl- (1.65) < F- (2.40) < CH3- (2.50). Compounds I and II are the most lipophilic in the series of the studied substances, whereas the introduction of a chlorine atom considerably lowers the partition coefficient (~0.8 log units). This fact agrees with the common concept that lipophilic groups are usually hydrocarbon or fluorine-containing radicals. […] For drugs with such partition coefficients, there is a good balance between the solubility and permeability through passive diffusion and minimum metabolism due to the low binding capacity with enzymes.
The octanol/buffer pH 7.4 partition coefficient logPO/B is measured in a static mode using the shake-flask method. The procedure has been presented as standard in the Organization for Economic Cooperation and Development (OECD) guidelines for testing chemicals. The equipment described above was also used for the determination of the 1-octanol/water partition coefficients. […] The correctness of the obtained value of each compound was verified by checking the mass balance of the starting amount of the compound and the total amount of the compound partitioned between the two phases.
To aim evaluated transfer (partition) thermodynamic functions, the 1-octanol/buffer partition coefficients P^* o/b as the ratio of equilibrium concentrations in the organic (xo) and aqueous phases (xb) expressed in mole fractions were calculated: P* o/b = xo/xb(12)

[2] = Thermodynamic functions of transfer 1-octanol/buffer pH 7.4; assay type: physicochemical; settings: 298.15 K
Protocol: The temperature variation of the partition coefficient provides enthalpic and entropic contributions to the free energy of transfer. The thermodynamic transfer functions for hybrids I–III in the 1-octanol/buffer pH 7.4 system were calculated by Equations (12)–(16) and are summarized in Table 6. The standard Gibbs energy values for all the compounds are negative. Therefore, the transfer from the aqueous medium to the organic phase within the studied temperature range is thermodynamically favourable and spontaneous. The standard transfer enthalpies of all the studied compounds are positive, which means the process is endothermic. Energy is consumed during the transfer to overcome the hydrophobic effects in water (destruction of the molecule solvate shell structure), destruction of the solvent–solute interactions in the aqueous medium and creation of a cavity in the organic phase where the solute molecules can enter.
The standard change in Gibbs free energy of transfer (∆trG^o) from the buffer to the organic phase was calculated by Equation (14):∆trG^o = −RTlnP*o/b(14)
The standard change entropy of transfer (∆trS^o) is determined as follows:∆trS^o = (∆trH^o − ∆trG^o)/T(15)

C. glabrata 61L = assay: In vitro antifungal activity, microbroth dilution (MIC); assay type: cell-based
Protocol: (§1) The in vitro antifungal screening results of synthesized compounds was evaluated against three fungal strains: C. parapsilosis ATCC 22019, C. utilis 84, and C. glabrata 61L are summarized in Table 1.
(§2) The in vitro antifungal activity of the target compounds was measured by means of the minimal inhibitory concentrations (MIC) with fluconazole as the control drug. Procedure was carried out by the microbroth dilution method in 96-well plates according to the recommendations of the Clinical and Laboratory Standards Institute. The detailed information was reported previously. The investigated pathogenic species included C. parapsilosis ATCC 22019, C. utilis 84 and C. glabrata 61. The sensitivity was evaluated visually, after the incubation at 35 °C for 24 h and the value was compared with the growth density in the reference culture without the sample. Each test was conducted in triplicate.

[3] = system: C. parapsilosis ATCC 22019; assay: as above; assay type: cell-based
Protocol: as §1, §2

C. utilis 84 = assay: as above; assay type: cell-based; settings: Williopsis jadinii, 84, 24 h
Protocol: as §1, §2

[4] = 1-octanol/buffer pH 7.4, 293.15 K
[5] = 1-octanol/buffer pH 7.4, 298.15 K
[6] = 1-octanol/buffer pH 7.4, 303.15 K
[7] = 1-octanol/buffer pH 7.4, 308.15 K
[8] = 1-octanol/buffer pH 7.4, 313.15 K

SMILES: Cc1ccc(-n2c(=S)sc3c(=O)n(CCCN4CCN(CC(O)(Cn5cncn5)c5ccc(F)cc5F)CC4)cnc32)cc1 (stereo not drawn) [I, 6-[3-[4-[2-(2,4-difluorophenyl)-2-hydroxy-3-(1H-1,2,4-triazol-1-yl)propyl]-1-piperazinyl]propyl]-2,3-dihydro-3-(4-methylphenyl)-2-thioxo-thiazolo[4,5-d]pyrimidin-7(6H)-one]
- sb × 10^6 (concentration in buffer) [1, 4]: 10.2 mol∙L^−1 (printed as sb × 10^6
- so × 10^3 (concentration in 1-octanol) [1, 4]: 2.88 mol∙L^−1 (printed as so × 10^3
- xb × 10^7 (mole fraction in buffer) [1, 4]: 1.82 mole fraction (printed as xb ×
- xo × 10^4 (mole fraction in 1-octanol) [1, 4]: 4.54 mole fraction (printed as xo ×
- sb × 10^6 (concentration in buffer) [1, 5]: 9.11 mol∙L^−1 (printed as sb × 10^6
- so × 10^3 (concentration in 1-octanol) [1, 5]: 2.88 mol∙L^−1 (printed as so × 10^3
- xb × 10^7 (mole fraction in buffer) [1, 5]: 1.63 mole fraction (printed as xb ×
- xo × 10^4 (mole fraction in 1-octanol) [1, 5]: 4.57 mole fraction (printed as xo ×
- sb × 10^6 (concentration in buffer) [1, 6]: 7.95 mol∙L^−1 (printed as sb × 10^6
- so × 10^3 (concentration in 1-octanol) [1, 6]: 2.88 mol∙L^−1 (printed as so × 10^3
- xb × 10^7 (mole fraction in buffer) [1, 6]: 1.43 mole fraction (printed as xb ×
- xo × 10^4 (mole fraction in 1-octanol) [1, 6]: 4.59 mole fraction (printed as xo ×
- sb × 10^6 (concentration in buffer) [1, 7]: 7.16 mol∙L^−1 (printed as sb × 10^6
- so × 10^3 (concentration in 1-octanol) [1, 7]: 2.88 mol∙L^−1 (printed as so × 10^3
- xb × 10^7 (mole fraction in buffer) [1, 7]: 1.29 mole fraction (printed as xb ×
- xo × 10^4 (mole fraction in 1-octanol) [1, 7]: 4.61 mole fraction (printed as xo ×
- logPo/b ([1]; 1-octanol/buffer pH 7.4, 308.15 K, from concentrations in mol∙L^−1): 2.60
- sb × 10^6 (concentration in buffer) [1, 8]: 6.38 mol∙L^−1 (printed as sb × 10^6
- so × 10^3 (concentration in 1-octanol) [1, 8]: 2.88 mol∙L^−1 (printed as so × 10^3
- xb × 10^7 (mole fraction in buffer) [1, 8]: 1.15 mole fraction (printed as xb ×
- xo × 10^4 (mole fraction in 1-octanol) [1, 8]: 4.63 mole fraction (printed as xo ×
- logP at 2 days ([1]; 293.15 K): 3.39
- logD at 2 days ([1]; 293.15 K, from concentrations in mol∙L^−1): 2.45
- logP at 2 days ([1]; 298.15 K): 3.44
- logD at 2 days ([1]; 298.15 K, from concentrations in mol∙L^−1): 2.5
- logP at 2 days ([1]; 303.15 K): 3.5
- logD at 2 days ([1]; 303.15 K, from concentrations in mol∙L^−1): 2.56
- logP at 2 days ([1]; 308.15 K): 3.55
- logP at 2 days ([1]; 313.15 K): 3.6
- logD at 2 days ([1]; 313.15 K, from concentrations in mol∙L^−1): 2.65
- T∆trS^o [2]: 38.0 ± 0.9 kJ/mol
- ∆trG^o [2]: -19.6 ± 0.5 kJ/mol
- ∆trH^o [2]: 18.3 ± 0.3 kJ/mol
- ∆trS^o [2]: 127.4 ± 4.7 J·mol^−1·K^−1
- MIC relative to the reference value (fluconazole) (C. glabrata 61L; C. glabrata 61L): four times less
- MIC (C. glabrata 61L; Nakaseomyces glabratus, 61L, 24 h): 2 µg/mL (≈ 3.13 µM)
- advantage over fluconazole ([3]; C. parapsilosis ATCC 22019, MIC ratio): 4 fold
- MIC ([3]; Lodderomyces parapsilosis, ATCC22019, 24 h): 0.5 µg/mL (≈ 0.783 µM)
- MIC (C. utilis 84): 4 µg/mL (≈ 6.26 µM)
